{"source": "patent US20260021059A1", "about": "“THERAPEUTIC COMBINATIONS AND METHODS” (RUTGERS, THE STATE UNIVERSITY OF NEW JERSEY, priority 2022, published 2026)", "key": {"BED patients": {"test_system": "BED patients", "details": "daily LDX administration; cited from earlier work"}, "rats [1]": {"test_system": "rats", "test": "Palatable food intake (binge-like eating) of a fat/sucrose mixture during 30 min exposure periods", "format": "in vivo", "details": "for palatable food intake (binge-like eating): N=5; for palatable food intake: N=12", "description": "Rats were trained to consume a palatable fat mixture (90% vegetable shortening, 10% sucrose) during brief exposure periods (30 mins) that occurred twice per week. The amount of palatable food consumed during these 30 min exposure periods was measured."}, "rats [2]": {"test_system": "rats", "test": "Locomotor activity / behavioral sensitization on repeated (7 d) dosing", "format": "in vivo", "details": "d-amphetamine alone 0.375 mg/kg i.p., 7 consecutive days; recorded 1 hour following treatment", "description": "Rats were measured for baseline locomotor activity (Day 0). Rats then received injections of saline, d-amphetamine, or the combination of d-amphetamine and suvorexant, for 7 consecutive days. Locomotor activity was recorded for 1 hour following treatment."}, "rats [3]": {"test_system": "rats", "test": "Sleep EEG/EMG telemetry recordings over the 12 hours inactive period", "details": "d-amphetamine alone 0.75 mg/kg i.p., 1 hr prior to onset of inactive period"}}, "note": "“Also recorded” adds a separate entry of the source.", "data": [{"smiles": "C[C@@H](Cc1ccccc1)NC(=O)[C@@H](N)CCCCN", "note": "[LDX, lisdexamfetamine]", "values": [{"measurement": "binge frequency", "setting": "BED patients", "value": "highly effective at reducing binge frequency"}, {"measurement": "patients reporting complete binge cessation", "setting": "BED patients", "value": "35-50%"}]}, {"smiles": "Cc1nc2ccc(NC(=O)Nc3ccnc4cccnc34)cc2o1", "note": "[SB334867]", "values": [{"measurement": "palatable food intake (binge-like eating)", "setting": "rats [1]; SB334867 alone 10 mg/kg i.p.", "value": "observed only at the highest dose; also recorded: A significant reduction was observed only at a high dose"}, {"measurement": "palatable food intake (binge-like eating)", "setting": "rats [1]; SB334867 alone 30 mg/kg i.p.", "value": "significant change; also recorded: significant reduction"}]}, {"smiles": "C[C@H](N)Cc1ccccc1", "note": "[d-amphetamine]", "values": [{"measurement": "locomotor activity (behavioral reactivity)", "setting": "rats [2]", "value": "significantly higher; also recorded: increased locomotor activity"}, {"measurement": "palatable food intake", "setting": "rats [1]; d-amphetamine alone 0.1875 mg/kg i.p. prior to test session", "value": "no significant change; also recorded: no effect"}, {"measurement": "palatable food intake", "setting": "rats [1]; d-amphetamine alone 0.375 mg/kg i.p. prior to test session", "value": "no significant change; also recorded: no effect"}, {"measurement": "total time in REM sleep compared to baseline", "setting": "rats [3]", "value": "decreased"}, {"measurement": "total time in active wake compared to baseline", "setting": "rats [3]", "value": "increased"}]}, {"smiles": "Cc1ccc(-n2nccn2)c(C(=O)N2CCN(c3nc4cc(Cl)ccc4o3)CC[C@H]2C)c1", "note": "[suvorexant]", "values": [{"measurement": "palatable food intake", "setting": "rats [1]; suvorexant alone 10 mg/kg i.p. prior to test session", "value": "no significant change; also recorded: no effect"}]}]}
